The source of these data is patent US12551437B2, “Liposome compositions comprising weak acid drugs and uses thereof” (Pharmosa Biopharm Inc., priority 2017, dated 2026).

The conditions of series [1]: cited from earlier work.
Series [2] in a line: Drug loading and encapsulation efficiency of liposome suspensions (G-25 column separation, HPLC). The series is classed as physicochemical.
Experimental: Liposome colloidal suspensions were prepared by ethanol injection technique. […] (DSPE-PEG2000) were dissolved in 2.86 ml of ethanol. The lipid solution in ethanol was injected into 17.4 ml of sodium acetate (200 mM or 400 mM) with vigorous stirring at 60° C. Liposomes were formed as soon as the lipid solution was in contact with sodium acetate. This was followed by extruding the liposome suspension through a 200 nm and a 100 nm polycarbonate membrane (six times, respectively). The liposome with about 100 nm was obtained and diafiltrated against a citrate buffer (pH 5.5) to form a higher inside/lower outside pH gradient between the external medium and the internal aqueous medium of the liposomes. The empty liposome suspension was then stored at 4° C. before drug loading process.
PGE1 (alprostadil) was added to the liposome suspension in the preceding paragraph at various drug/lipid molar ratios at room temperature (25° C.) for 20 min. The PGE1 loaded liposome suspension was stored at 4° C.
The liposome suspension was prepared according to the method described in Section 1.1, except that sodium acetate (200 mM or 400 mM) was replaced by sodium bicarbonate (e.g. 200 mM, 400 mM or other concentrations).
The amount of the drug encapsulated into the liposome was quantified using Waters Alliance® HPLC system with a Photodiode Array (PDA) Detector. […] Separation was performed in C18 Column (Phenomenex Prodigy 5U ODS-3 150×4.6 mm), and then post-reaction was carried out by mixed with IN of KOH at 65° C. The peak of the drug e.g. PGE1 was detected at 280 nm. The retention time was about 4.6 minutes.
Encapsulation efficiency (EE), i.e. the percentage of the drug encapsulated (or loaded) in the internal aqueous medium of the liposomes to the total amount of the drug present in the liposome suspension (i.e. drug in the external medium and drug loaded into the internal aqueous medium of the liposomes) was quantified as follows. Briefly, the liposome suspension was subjected to column chromatography. The free or non-associated drug (i.e. the drug in the external medium) and the liposomes containing the encapsulated drugs in the internal aqueous medium were separated from each other by eluting the liposome suspension through a G-25 column. The amount of the free drug was determined using Waters HPLC with PDA detection, and the amount of the encapsulated drug in the internal aqueous medium of the liposome, after destructing the liposomes with methanol (90% methanol and 10% liposome suspension), was also determined using the same method. The encapsulation efficiency was calculated using the following formula,
[formula] where L is the amount of the encapsulated drug in the internal aqueous medium of the liposomes, and F is the amount of the free drug in the external medium.
In addition, the internal drug concentration (mM) was calculated as follows. Internal drug concentration (mM)=[Drug [μg/mL]×EE %/molecular weight]/[trapped volume*]
The nature of series [3]: Incubation of liposome suspensions at simulated human physiological condition: pH of external medium and leakage. The note with it: 20 minutes; for pH at incubation temperature: external buffer 280 mOsm/Kg, citrate 10 mM; for liposome leakage: 280 mOsm/Kg. The format is physicochemical. How it is done:
Liposome suspensions using various concentrations of sodium bicarbonate for PGE1 loading were prepared according to section 1.1 of Example 1. The liposome suspensions were incubated at 25° C. and 37° C. for 20 minutes in an external buffer with osmolarity between 280-300 mOsm/Kg, to simulate human physiological condition.
Incubating formulations with a bicarbonate concentration of higher than about 1000 mM in human physiological condition (37° C. and 280-300 mOsm/Kg) generated more CO2, and lead to liposome leakage. The leaked liposomes released bicarbonate salt and the drug from the internal aqueous medium into the external medium and increased the pH of external medium to higher than 6.5.

The mark [4] stands for this setting: liposomal formulation (4-2) HSPC:cholesterol:DSPG 3:2:0.075, internal bicarbonate salt 400 mM, drug loading at 40° C.
The mark [5] stands for this setting: liposomal formulation (4-1) HSPC:cholesterol:DSPE-mPEG2000 3:2:0.075, internal bicarbonate salt 200 mM, drug loading at 25° C.
Where [6] appears, read: liposomal formulation (4-1) HSPC:cholesterol:DSPE-mPEG2000 3:2:0.075, internal bicarbonate salt 400 mM, drug loading at 25° C.
The mark [7] stands for this setting: liposomal formulation (4-1) HSPC:cholesterol:DSPE-mPEG2000 3:2:0.075, internal bicarbonate salt 400 mM, drug loading at 40° C.
The mark [8] stands for this setting: sodium bicarbonate internal salt 50 mM, 10 mM of phospholipid.
Setting [9] is: sodium bicarbonate internal salt 150 mM, 10 mM of phospholipid.
[10] abbreviates: sodium bicarbonate internal salt 200 mM, 10 mM of phospholipid.
Where [11] appears, read: sodium bicarbonate internal salt 250 mM, 10 mM of phospholipid.
Setting [12] is: sodium bicarbonate internal salt 300 mM, 10 mM of phospholipid.
Setting [13] is: sodium bicarbonate internal salt 400 mM, 10 mM of phospholipid.
The mark [14] stands for this setting: sodium bicarbonate internal salt 500 mM, 5 mM of phospholipid.
[15] abbreviates: sodium bicarbonate internal salt 600 mM, 10 mM of phospholipid.
Setting [16] is: sodium bicarbonate internal salt 800 mM, 10 mM of phospholipid.

As usually defined, the pKa is the negative logarithm of the acid dissociation constant. Consider `CC#CCC(C)[C@H](O)/C=C/[C@@H]1[C@H]2c3cccc(CCCC(=O)O)c3O[C@H]2C[C@H]1O` (mixture of isomers) [Beraprost], for which, in series [1], the pKa is listed as 4.2.
Turning to `O=C(O)COC(=O)Cc1ccccc1Nc1c(Cl)cccc1Cl` [Aceclofenac], the pKa in series [1] is 4.7.
As for `CC1(C)[C@@H](OC(=O)CCC(=O)O)CC[C@]2(C)[C@H]3C(=O)C=C4[C@@H]5C[C@@](C)(C(=O)O)CC[C@]5(C)CC[C@@]4(C)[C@]3(C)CC[C@@H]12` [Carbenoxolone sodium], the pKa in series [1] is reported as 4.7.
In the case of `C[C@@H]1C[C@H]2[C@@H]3CCC4=CC(=O)C=C[C@]4(C)[C@@]3(F)[C@@H](O)C[C@]2(C)[C@@]1(O)C(=O)COP(=O)(O)O` [Dexamethasone sodium phosphate], the pKa in series [1] was 1.89.
Take `CCCCC[C@H](O)/C=C/[C@@H]1[C@H]2C/C(=C/CCCC(=O)O)O[C@H]2C[C@H]1O` [Epoprostenol]: the pKa in series [1] is reported as 4.43.
For the compound `C[C@]12CCC(=O)C=C1CC[C@@H]1[C@@H]2[C@@H](O)C[C@@]2(C)[C@H]1CC[C@]2(O)C(=O)COC(=O)CCC(=O)O` [Hydrocortisone sodium succinate], the pKa in series [1] is reported as 3.66.
For `CC#CCC(C)[C@H](O)/C=C/[C@@H]1[C@H]2C/C(=C/CCCC(=O)O)C[C@H]2C[C@H]1O` (stereo partly drawn) [Iloprost], in series [2] (setting [4]), the E.E. came out at 97.4%, the “Internal [drug]” value is 170.34 mM, the “Internal drug to internal salt molar ratio” value worked out at 0.426 and the “Measured [drug]” value turned out to be 395.9 µg/mL. The pKa in series [1] is listed as 4.66.
`O=C(c1ccccc1)c1ccc2n1CCC2C(=O)O` (stereo not drawn) [Ketorolac sodium]: the pKa in series [1] is reported as 3.8.
In the case of `O=C(c1ccccc1)c1ccc2n1CCC2C(=O)O` (stereo not drawn) [Ketorolac], in series [2] (setting [5]), the E.E. is reported as 91.0%, the “Internal [drug]” value was determined as 87.06 mM, the “Internal drug to internal salt molar ratio” value came out at 0.435 and the “Measured [drug]” value was found to be 766.8 µg/mL. For the same compound, in series [2] (setting [6]), the E.E. amounted to 91.2%, the “Internal [drug]” value was 135.71 mM, the “Internal drug to internal salt molar ratio” value was 0.339 and the “Measured [drug]” value was found to be 1192.7 µg/mL.
Regarding `CN1C(C(=O)Nc2ccccn2)=C(O)c2sc(Cl)cc2S1(=O)=O` [Lornoxicam], in series [2] (setting [7]), the E.E. is reported as 93.3%, the “Internal [drug]” value is reported as 88.41 mM, the “Internal drug to internal salt molar ratio” value is on record as 0.221 and the “Measured [drug]” value turned out to be 1106.3 µg/mL. Besides, the pKa in series [1] is 1.8.
`CC(C)N(CCCCOCC(=O)O)c1cnc(-c2ccccc2)c(-c2ccccc2)n1` [MIRE-269 (ACT-333679)]: in series [2] (setting [4]), the E.E. is 98.7%, the “Internal [drug]” value was determined as 65.41 mM, the “Internal drug to internal salt molar ratio” value was determined as 0.164 and the “Measured [drug]” value came out at 174.6 µg/mL. In series [1], the pKa was 3.77.
`C[C@H]1C[C@@H]2[C@H]([C@@H](O)C[C@@]3(C)[C@H]2CC[C@]3(O)C(=O)COC(=O)CCC(=O)O)[C@@]2(C)C=CC(=O)C=C12` [Methylprednisolone Hemisuccinate (MPSS), Methylprednisolone Hemisuccinate]: in series [2] (setting [7]), the E.E. was 85.9%, the “Internal [drug]” value worked out at 65.27 mM, the “Internal drug to internal salt molar ratio” value stood at 0.163 and the “Measured [drug]” value is 1132.2 µg/mL. The pKa in series [1] is given as 4.29.
Regarding `C[C@H]1C[C@@H]2[C@H]([C@@H](O)C[C@@]3(C)[C@H]2CC[C@]3(O)C(=O)COC(=O)CCC(=O)O)[C@@]2(C)C=CC(=O)C=C12` [Methylprednisolone sodium succinate], the pKa in series [1] is 4.6.
Regarding `O=C(O)CCc1nc(-c2ccccc2)c(-c2ccccc2)o1` [Oxaprozin], the pKa in series [1] was 4.95.
Regarding `CN1C(C(=O)Nc2ccccn2)=C(O)c2ccccc2S1(=O)=O` [Piroxicam], in series [2] (setting [7]), the E.E. is recorded as 84.5%, the “Internal [drug]” value was 76.72 mM, the “Internal drug to internal salt molar ratio” value is 0.192 and the “Measured [drug]” value turned out to be 944.7 µg/mL. Besides, the pKa in series [1] is listed as 4.8.
As to `CCCCC[C@H](O)/C=C/[C@H]1[C@H](O)CC(=O)[C@@H]1CCCCCCC(=O)O` [Prostaglandin E1 (PGE1), Prostaglandin E1], the “pH at incubation temperature” value in series [3] (bicarbonate 600 mM, 25° C.) is reported as 5.42; in series [3] (bicarbonate 600 mM, 37° C.), 5.43; in series [3] (bicarbonate 800 mM, 25° C.), 5.38; in series [3] (bicarbonate 800 mM, 37° C.) it was 5.53; in series [3] (bicarbonate 1000 mM, 25° C.) it was 5.37; in series [3] (bicarbonate 1000 mM, 37° C.), 6.68. Further, the “pH at incubation temperature” value in series [3] (bicarbonate 1300 mM, 25° C.) is reported as 5.44; in series [3] (bicarbonate 1300 mM, 37° C.), 6.74. Also, the liposome leakage entry in series [3] (bicarbonate 1000 mM, 37° C.) is listed as “leakage”; in series [3] (bicarbonate 1300 mM, 37° C.) it was “leakage”. For the same compound, the E.E. was 92.8% in series [2] (setting [6]); 93.8% in series [2] (setting [8]); 95.7% in series [2] (setting [9]); 95.9% in series [2] (setting [10]); 92.3% in series [2] (setting [11]); 92.7% in series [2] (setting [12]). Also, the E.E. in series [2] (setting [13]) is 92.8%; in series [2] (setting [14]), 96.0%; in series [2] (setting [15]), 93.1%; in series [2] (setting [16]) it was 90.2%. The “Internal [drug]” value in series [2] (setting [6]) is 161.81 mM. For the same compound, the “Internal drug to internal salt molar ratio” value turned out to be 0.405 in series [2] (setting [6]); 0.382 in series [2] (setting [8]); 0.402 in series [2] (setting [9]); 0.402 in series [2] (setting [10]); 0.480 in series [2] (setting [11]); 0.488 in series [2] (setting [12]). Besides, the “Internal drug to internal salt molar ratio” value in series [2] (setting [13]) was 0.405; in series [2] (setting [14]), 0.505; in series [2] (setting [15]), 0.359; in series [2] (setting [16]) it was 0.164. For the same compound, in series [2] (setting [6]), the “Measured [drug]” value came out at 1940.8 µg/mL. Also, the “Internal [PGE1]” value in series [2] (setting [8]) is 19.08 mM; in series [2] (setting [9]), 60.25 mM; in series [2] (setting [10]), 80.47 mM; in series [2] (setting [11]), 119.94 mM; in series [2] (setting [12]) it was 146.32 mM; in series [2] (setting [13]), 161.81 mM. In addition, the “Internal [PGE1]” value in series [2] (setting [14]) is on record as 252.52 mM; in series [2] (setting [15]) it was 215.66 mM; in series [2] (setting [16]) it was 130.87 mM. In addition, the “[PGE1]” value turned out to be 226.4 µg/mL in series [2] (setting [8]); 700.7 µg/mL in series [2] (setting [9]); 934.0 µg/mL in series [2] (setting [10]); 1446.4 µg/mL in series [2] (setting [11]); 1756.9 µg/mL in series [2] (setting [12]); 1940.8 µg/mL in series [2] (setting [13]). The “[PGE1]” value in series [2] (setting [14]) came out at 1463.9 µg/mL; in series [2] (setting [15]) it was 2578.3 µg/mL; in series [2] (setting [16]) it was 1614.9 µg/mL. Besides, the pKa in series [1] was 4.35.
Turning to `CCCCC[C@H](O)/C=C/[C@H]1[C@H](O)CC(=O)[C@@H]1C/C=C\CCCC(=O)O` [Prostaglandin E2 (PGE2), Prostaglandin E2], in series [1], the pKa is reported as 4.3.
Turning to `O=C(O)COC[C@H]1CC[C@H](COC(=O)N(c2ccccc2)c2ccc(Cl)cc2)CC1` [Ralinepag (APD811), Ralinepag], in series [1], the pKa is listed as 3.5.
For the compound `O=C(Oc1ccccc1C(=O)O)c1ccccc1O` [Salsalate (Disalcid), Salsalate], the pKa in series [1] was 3.4.
